Test systems include DMS 273 small cell lung; KM20L2 colon; LXFL 529 NSCLC; DLD-1 colon; RXF-631 renal; M19-MEL melanoma; DMS 114 small cell lung; XF 498 CNS; MDA-N.
Holding throughout (assay): NCI tumour cell line growth inhibition, 48 h

Values after ≈ are worked out from the molar mass of the structure shown.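 All cell lines were grown in 96-well plates and treated with compound for 48 hours. GI50 is the concentration that inhibits growth by half. TGI is the concentration that stops growth completely.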 Active and inactive are the calls of the source. Cut-off read from the data, not from the text of the source: active = GI50 below about 0.43 µM; inactive = the rest.

With `Cc1cc(=O)n2c(cc3cccccc32)n1`, the TGI with DMS 273 small cell lung, in the experiment on KM20L2 colon and in the experiment on LXFL 529 NSCLC was greater than 100 µM in each case.

In the case of `C[C@H]1[C@H](C)CC[C@]2(C(=O)O)CCC3(COC(=O)/C=C/c4ccc(O)cc4)C(=CCC4[C@@]5(C)CC[C@H](O)C(C)(C)C5CC[C@]43C)[C@H]12` (stereo not given in full), the TGI is 25.9 µM in the experiment on DMS 273 small cell lung; 15.8 µM in the experiment on DLD-1 colon; 30.4 µM in the experiment on RXF-631 renal; greater than 100 µM in the experiment on M19-MEL melanoma; 16.4 µM with KM20L2 colon; 24.8 µM in the experiment with LXFL 529 NSCLC. Besides, the TGI in the experiment with DMS 114 small cell lung was determined as 32 µM.

Turning to `COc1ccccc1/C=C1\CCC(CN2CCOCC2)C1=O` (stereo not given), the TGI worked out at 28.4 µM with DMS 273 small cell lung; 30.1 µM with XF 498 CNS; 18.1 µM with DLD-1 colon; 24.4 µM with RXF-631 renal; 26.9 µM in the experiment on MDA-N; 18 µM in the experiment on M19-MEL melanoma. In addition, the TGI was determined as 32.6 µM in the experiment with KM20L2 colon, 9.34 µM in the experiment with LXFL 529 NSCLC and 35.6 µM with DMS 114 small cell lung.

In the experiment on MDA-N, `O=C(O)C1C2C=CC(O2)C1C(=O)NCc1ccncc1` (stereo not given) yielded a TGI greater than 100 µM.

Consider `CC(Oc1ccc2c(=O)cc(-c3ccccc3)oc2c1)C(=O)O` (stereo not given), for which the TGI in the experiment on XF 498 CNS, with DLD-1 colon, in the experiment on M19-MEL melanoma, with KM20L2 colon, in the experiment on LXFL 529 NSCLC and in the experiment with DMS 114 small cell lung was greater than 100 µM each time.

In the case of `CC(=O)OC(C)(C)C[N+](=O)[O-]`, the TGI with DMS 273 small cell lung, in the experiment with DLD-1 colon, in the experiment with M19-MEL melanoma, in the experiment with KM20L2 colon, with LXFL 529 NSCLC and with DMS 114 small cell lung was greater than 100 µM in each case.

`c1ccc(N2CCN(CCCN3CCc4c([nH]c5ccccc45)C3c3cccnc3)CC2)cc1` (stereo not given): the TGI in the experiment on DMS 273 small cell lung is greater than 75.4 µM; with XF 498 CNS, 44.6 µM; with DLD-1 colon, greater than 100 µM; with RXF-631 renal, 98.2 µM; in the experiment on M19-MEL melanoma, greater than 100 µM; in the experiment on KM20L2 colon, greater than 100 µM. Besides, the TGI with LXFL 529 NSCLC and in the experiment on DMS 114 small cell lung was greater than 100 µM each time.

`Cl.[O-]c1cccc2cccnc12.[O-]c1cccc2cccnc12.[O-]c1cccc2cccnc12.[O-]c1cccc2cccnc12.[Ti+4]`: the TGI in the experiment with DMS 273 small cell lung is 1.69 µM; with DLD-1 colon it was 1.6 µM; with KM20L2 colon it was greater than 76 µM; in the experiment with DMS 114 small cell lung, 0.365 µM.

As to `C=C1CCCC2OC(OC)CCC12` (stereo not given), the TGI in the experiment with DMS 273 small cell lung, with XF 498 CNS, in the experiment with DLD-1 colon, with RXF-631 renal, in the experiment on M19-MEL melanoma and in the experiment with KM20L2 colon was greater than 100 µM throughout. In addition, the TGI in the experiment on LXFL 529 NSCLC and in the experiment with DMS 114 small cell lung was greater than 100 µM each time.

On to `O=C(CC1(O)C(=O)Nc2c(Cl)cc(Cl)cc21)c1ccc([N+](=O)[O-])cc1` (stereo not given), for which the TGI is greater than 100 µM in the experiment with DMS 273 small cell lung; greater than 100 µM in the experiment on XF 498 CNS; greater than 66 µM in the experiment with DLD-1 colon; 22 µM in the experiment on M19-MEL melanoma; greater than 100 µM with KM20L2 colon; greater than 51.5 µM in the experiment on LXFL 529 NSCLC. The compound also returned a TGI with DMS 114 small cell lung of 53.1 µM.

`CCCCCCCCCCCCCP(=O)(OC)OC`: the TGI in the experiment with DMS 273 small cell lung came to 33.1 µM; with XF 498 CNS it was 31.8 µM; with DLD-1 colon, 30.5 µM; with RXF-631 renal, 32.5 µM; in the experiment with M19-MEL melanoma, 33.4 µM; in the experiment with KM20L2 colon, 42.8 µM. The results for the TGI with LXFL 529 NSCLC and in the experiment with DMS 114 small cell lung were 33.5 µM and 37 µM, respectively.

Consider `O=C(CO)CC(=O)C(=O)Nc1cccc(C(F)(F)F)c1`, for which the TGI with DMS 273 small cell lung, in the experiment with XF 498 CNS, with DLD-1 colon, with KM20L2 colon and in the experiment with LXFL 529 NSCLC was greater than 100 µM throughout.

For the compound `CSc1nc(SC)c2c(C)c(Br)[nH]c2n1`, in the experiment on MDA-N, the TGI is greater than 100 µM.

Turning to `O=C(O)CC(S)C(=O)O.[Li+].[Sb]` (stereo not given), in the experiment on MDA-N, the GI50 was greater than 100 µM and the TGI is greater than 100 µM.

As to `C=C(C)C1CC=C(C)C(O)([C@@]2(O)C[C@H](C(=C)C)CC=C2C)C1` (stereo not given in full), the TGI in the experiment with DMS 273 small cell lung was 39.9 µM; in the experiment with XF 498 CNS it was 29.7 µM; with DLD-1 colon, greater than 100 µM; with M19-MEL melanoma, 38.1 µM; with LXFL 529 NSCLC, greater than 100 µM; with DMS 114 small cell lung it was greater than 100 µM.

Consider `CCCCCC1CC=CC(NC(=O)OCc2ccccc2)C1/C=C/CCCC1OCCO1` (stereo not given), for which the TGI with DMS 273 small cell lung, in the experiment with XF 498 CNS, with DLD-1 colon, in the experiment with RXF-631 renal, in the experiment with M19-MEL melanoma and in the experiment with KM20L2 colon was greater than 100 µM each time. The TGI in the experiment with LXFL 529 NSCLC and with DMS 114 small cell lung was greater than 100 µM each time.

Take `C=C1C(=O)O[C@H]2C3OC3(C)CC/C=C(/C(=O)OC)[C@@H](OC(C)=O)[C@H](OC(=O)C3(C)OC3C)[C@H]12` (stereo not given in full): the GI50 was 1.1 µg/mL (≈ 2.37 µM) with DMS 273 small cell lung, 1.94 µg/mL (≈ 4.17 µM) in the experiment on M19-MEL melanoma and 0.604 µg/mL (≈ 1.3 µM) in the experiment with DMS 114 small cell lung. For the same compound, the TGI came out at 3.73 µg/mL in the experiment with DMS 273 small cell lung, 3.46 µM with MDA-N, 5.17 µg/mL in the experiment on M19-MEL melanoma and 1.8 µg/mL in the experiment with DMS 114 small cell lung. The result with KM20L2 colon and with LXFL 529 NSCLC was inactive.

With `CC(=O)CCn1[nH]c(=O)c(Cl)c(Cl)c1=O`, the TGI in the experiment with DMS 273 small cell lung, with XF 498 CNS, in the experiment on DLD-1 colon, in the experiment on M19-MEL melanoma, with KM20L2 colon and in the experiment with LXFL 529 NSCLC was greater than 100 µM in each case. In addition, the TGI with DMS 114 small cell lung was greater than 100 µM.

`O=C1C(c2ccccc2)=[N+]([O-])c2cc([N+](=O)[O-])ccc21`: the TGI was found to be 39.3 µM in the experiment on XF 498 CNS; 46.9 µM with DLD-1 colon; 32.9 µM in the experiment on M19-MEL melanoma; 47.3 µM in the experiment on KM20L2 colon; 27.3 µM with DMS 114 small cell lung.

For the origin of these results see PubChem BioAssay (NCI).
